In patent US7160733B2, “Ligand specific to β2-glycoprotein I and use thereof” (priority 2001, dated 2007):

What was measured:
[1] = tested on: APS-1; test: ELISA on solid-phase lipid-coated plate: binding of antibodies of APS patient serum APS-1; design: species or system human; conditions: Experiment 1; Absorbance, mean ± SD, n = 3; solid-phase lipid, β2-GPI 15 μg/mL; serum with β2-GPI removed
Description: (§1) To eliminate endogenous β2-GPI in some experiments, serum samples were passed through a heparin-Sepharose column. The effluent was dialyzed against PBS and was used for ELISAs.
(§2) Synthesized oxLig-1 (50 μg/mL, 50 μL/well) was adsorbed by evaporation on a polystyrene plate (Immulon 1B; Dynex Technologies Inc.), and the plate was then blocked with 1% BSA. Serum samples (diluted 1:100 with PBS containing 0.3% BSA) were incubated in the wells with β2-GPI (15 μg/mL) or other proteins for one hour at room temperature. Antibody binding was detected with HRP-labeled anti-human IgG. Further steps were performed through a method as described in “anti-β2-GPI ELISA.”
(§3) CL (50 μg/mL, 50 μL/well) was adsorbed on a polystyrene plate (Immulon 1B), and further steps were performed through a method as described in “ELISA for antibodies against a protein-oxLig-1 complex.”

[2] = tested on: EY2C9; test: ELISA on solid-phase lipid (ligand)-coated plate: EY2C9 binding in presence of β2-GPI; design: species or system human
Description: (§4) Binding to extracted lipids: A microtiter plate (Immulon 1B, Dynex Technologies Inc.) was coated with lipids extracted from LDLs (50 μg/mL, 50 μL/well) by ethanol evaporation. The wells were blocked with PBS containing 1% BSA for one hour and the wells were incubated with 30 μg/mL of β2-GPI for one hour. Then, β2-GPI binding was detected using Cof-22 and HRP-labeled anti-mouse IgG antibodies. Alternatively, an anti-β2-GPI autoantibody (Cof-22, WB-CAL-1, or EY2C9) was diluted with a 0.3% BSA-containing PBS, and the diluted antibody was added to the coated plate (1.0 μg/mL, 100 μL/well) and incubated with β2-GPI (15 μg/mL) for one hour. The binding of the antibody was detected by an HRP-labeled anti-mouse IgG /or an anti-human IgM. The color was developed with H2O2 and o-phenylenediamine, and OD was measured at 490 nm. Between these steps, extensive washing were done using PBS containing 0.05% Tween 20.
as §2, §3

[3] = tested on: WB-CAL-1; test: ELISA on solid-phase lipid (ligand)-coated plate: WB-CAL-1 binding in presence of β2-GPI; design: species or system mouse
Description: as §4, §2, §3

[4] = target: T1, β2-GPI (Homo sapiens, UniProt P02749); test: ELISA on solid-phase lipid (ligand)-coated plate: β2-GPI binding detected with Cof-22; conditions: for β2-GPI binding to lipid: result in words (discussion)
T1 construct: β2-GPI was purified from normal human plasma as described in [35] with slight modification; from tissue; host or cells: pooled normal human plasma from healthy subjects
T1 sequence (P02749 20-345): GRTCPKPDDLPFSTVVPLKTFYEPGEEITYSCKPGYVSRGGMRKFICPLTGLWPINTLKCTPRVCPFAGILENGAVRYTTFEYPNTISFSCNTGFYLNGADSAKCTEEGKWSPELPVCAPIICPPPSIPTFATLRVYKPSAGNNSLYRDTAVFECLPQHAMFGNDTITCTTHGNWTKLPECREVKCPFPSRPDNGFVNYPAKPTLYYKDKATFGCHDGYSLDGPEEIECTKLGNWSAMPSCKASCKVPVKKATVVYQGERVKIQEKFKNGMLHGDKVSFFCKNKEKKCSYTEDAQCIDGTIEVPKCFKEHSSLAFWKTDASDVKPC
Description: as §4, §2, §3

[5] = tested on: APS-2; test: ELISA on solid-phase lipid-coated plate: binding of antibodies of APS patient serum APS-2; design: species or system human; conditions: Experiment 1; Absorbance, mean ± SD, n = 3; solid-phase lipid, β2-GPI 15 μg/mL; serum with β2-GPI removed
Description: as §1, §2, §3

[6] = tested on: anti-β2-GPI antibodies; test: ELISA of the anti-β2-GPI antibodies by use of a ligand-coated plate (results in words); format: binding; conditions: result in words
Description: as §4, §2

[7] = Experiment 1, Absorbance, mean ± SD, n = 3, solid-phase lipid, β2-GPI 15 μg/mL
[8] = absorbance at 490 nm, mean ± SD (n = 3), solid-phase ligand not methylated

Structure (SMILES) | Binding of β2-GPI-dependent aCL, APS-1 [1] | Binding of β2-GPI-dependent aCL, EY2C9 [2, 7] | Binding of β2-GPI-dependent aCL, WB-CAL-1 [3, 7] | Binding of β2-GPI-dependent aCL, Cof-22 [4, 7] | Binding of β2-GPI-dependent aCL, APS-2 [5] | EY2C9 binding, No treatment [2, 8] | WB-CAL-1 binding, No treatment [3, 8] | β2-GPI binding (Cof-22 binding), No treatment [4, 8] | β2-GPI binding to lipid [4] | binding of the anti-β2-GPI autoantibodies (WB-CAL-1 and EY2C9) to solid-phase ligand ([6]; ligand-coated plate) | binding of the three antibodies (WB-CAL-1, EY2C9, mouse monoclonal anti-β2-GPI antibody) to immobilized lipid [6]
CCCCC/C=C\C/C=C\C/C=C\C/C=C\CCCC(=O)O[C@H](COC(=O)CCCCCCCCCCCCCCC)COP(=O)([O-])OCC[N+](C)(C)C [PAPC, 1-Palmitoyl-2-arachidonoyl-phosphatidylcholine, reference compound] | 0.000 ± 0.001 | 0.011 ± 0.003 | 0.012 ± 0.001 | 0.019 ± 0.003 | 0.010 ± 0.002 | – | – | – | – | – | –
CCCCC/C=C\C/C=C\CCCCCCCC(=O)O[C@H]1CC[C@@]2(C)C(=CC[C@H]3[C@@H]4CC[C@H]([C@H](C)CCCC(C)C)[C@@]4(C)CC[C@@H]32)C1 [Cholesteryl linoleate, reference compound] | – | – | – | – | – | 0.074 +/− 0.012 | 0.056 +/− 0.002 | 0.061 +/− 0.005 | did not bind | no such binding was observed | –
CC(C)CCC[C@@H](C)[C@H]1CC[C@H]2[C@@H]3C(=O)C=C4C[C@@H](O)CC[C@]4(C)[C@H]3CC[C@]12C [7-ketocholesterol, 5-cholesten-3β-ol-7-one, reference compound] | – | – | – | – | – | – | – | – | did not bind | – | did not bind
